How the values were obtained:
Type in all cases: cell-based, human
T-iPS-T cells [1] = test: Comparison with PBMC feeder: proliferation of T-iPS-T cells; conditions: 1 μM added to CD3/CD28 Dynabeads vs PBMC feeder, FIG. 10
Description: By using T-iPS-T cells, a proliferation promoting effect was compared by culturing the cells using the following three methods: the same stimulation method as in Example 2 using PBMC feeder, the same stimulation method as in Example 4 using CD3/CD28 Dynabeads, and the same stimulation method as in Example 4 in which berbamine (SIGMA, 547190) at 1 μM was added to CD3/CD28 Dynabeads. The PBMC feeder cells were labeled using CellTrace CFSE Cell Proliferation Kit for Flow Cytometry (CFSE, Invitrogen, 100 nM) in order to discriminate them from T-iPS-T cells, and then, a radiation irradiation treatment was performed.
From the above results, it can be said that the present invention can substitute PBMCs which have been conventionally used for the proliferation of T cells.

T-iPS-T cells [2] = test: Long-term culturing of T-iPS-T cells obtained by differentiation induction using a feeder, trypan blue count; conditions: 1 μM, FIG. 15(B)
Description: Further, evaluation of T-iPS-T cells obtained by differentiation induction using a feeder was also performed. The T-iPS-T cells (1,500 cells/well) obtained by differentiation induction in Example 1 were seeded, and stimulated with CD3/CD28 Dynabeads in the same manner as in Example 4, and berbamine (BBM) at 1 μM or MilliQ water that is a solvent for the compound as a control was added thereto, and the cells were cultured in the same culture medium as in Example 6. The cells were collected on day 14, day 28, and day 42, and the number of viable cells was counted by a trypan blue method, and the cells were restimulated and cultured. The cells were collected on day 56, and the number of viable cells was counted.

[3] = system: primary T cells (CD4 T, CD8 T cells); test: Proliferation of primary T cells purified from PBMCs; conditions: 1 μM, 6 days, restimulated, further 4 days, FIG. 16
Description: The effect of berbamine on proliferation of primary T cells (CD4 T, CD8 T cells) was examined. As a method therefor, CD3 T cells were purified from PBMCs (CTL, Inc.) using Pan T Cell Isolation Kit, human (Miltenyi, 130-096-535). The purified CD3 T cells (20,000 cells/well) were seeded, and berbamine (BBM) at 1 μM or MilliQ water that is a solvent for the compound as a control was added thereto, and the cells were stimulated with CD3/CD28 Dynabeads (60,000 beads/well).
The cells were cultured for 6 days in the same culture medium as in Example 6 and restimulated. After the cells were further cultured for 4 days, the number of viable cells was counted by a trypan blue method and the ratios of CD4-positive cells and CD8-positive cells were analyzed by FACS. […]
After washing, the cells were resuspended in 200 μL/well of the staining solution containing PI. The suspension in an amount of 100 μL/well was analyzed using a BD LSR Fortessa cytometer (BD Bioscience) equipped with HTS, and all cells were recorded.
The value obtained by multiplying the positive rate of CD8(+) or CD4(+) cells in the PI-negative cell population analyzed by FlowJo 9 by the number of viable cells was defined as the number of CD8-positive cells or the number of CD4-positive cells. […]

stem cell memory T cells = test: Proliferation of sorted stem cell memory T cells, trypan blue count; conditions: 1 μM, stem cell memory T cells, 6, 9, 12 and 14 days, FIG. 18C
From the text: NPL 4 reports that hierarchy exists in T cells (FIG. 18A). In this Example, a fraction in which berbamine acts in T cells was verified. As a method therefor, PBMCs (CTL, Inc.) derived from a healthy subject was washed with a staining solution (PBS containing 2% FBS), and then stained with CCR7-APC (BioLegend, 353214), CD45RA-BV510 (BioLegend, 304142), CD45RO-APC-Cy7 (BioLegend, 307228), CD95-PC-Cy7 (BioLegend, 305622), CD8β-PE (Beckman, IM2217U), and CD4-BV421 (BioLegend, 317434).
After washing, the cells were resuspended in the staining solution containing PI, and by using BD AriaII Cell Sorter (BD Bioscience), in the CD8β(+) cells, CCR7(+)CD45RA(+)CD95(−)CD45RO(−) was sorted as naive T cells, CCR7(+)CD45RA(+)CD95(+)CD45RO(+) was sorted as stem cell memory T cells, CCR7(+)CD45RA(−)CD45RO(+) was sorted as central memory T cells, and CCR7(−) CD45RA(−)CD45RO(+) was sorted as effector memory T cells.
The respective cells (about 3,000 cells/well) were seeded, and berbamine (BBM) at 1 μM or MilliQ water that is a solvent for the compound as a control was added thereto, and the cells were stimulated with CD3/CD28 Dynabeads (about 9,000 beads/well). The cells were cultured using the same culture medium as in Example 6.
After 6, 9, 12, and 14 days of culturing, the number of viable cells was counted by a trypan blue method. In a statistical analysis, a Student's t-test was used (*: p<0.05).

NK cells = test: Proliferation of NK cells purified from PBMCs, trypan blue count; conditions: 1 μM, 14 days, NK cells of 3 donors, FIG. 20(C)
From the text: The effect of berbamine on NK cells was examined. As a method therefor, NK cells were purified from PBMCs (CTL, Inc.) derived from 3 healthy donor subjects using NK Cell Isolation Kit, human (Miltenyi, 130-092-657).
The NK cells before and after purification were washed with a staining solution (PBS containing 2% FBS) and then stained with CD56-FITC (BioLegend, 362546) and CD3-APC-Cy7 (BioLegend, 300318).
After washing, the cells were resuspended in the staining solution containing propidium iodide and measured using a BD FACSCanto II Flow Cytometer (BD Bioscience). The ratios of CD3(−) and CD56(+) cells in the PI-negative cell population analyzed by FlowJo 10 were confirmed.
As shown in FIG. 20(B), the ratios of CD3(−) and CD56(+) cells showing NK cells were 90% or more, which were sufficient. The purified NK cells (37,000 cells/well) were seeded, and cultured using MEM Alpha medium (Gibco, 12571-063) supplemented with 15% FBS (Biological Industries, 04-001-1A), L-Ascorbic Acid 2-Phosphate Sesquimagnesium Salt Hydrate (L-asc-2P, 50 μg/mL, nacalai tesque, 13570-66), ITS-G, IL-7 (10 ng/mL), and IL-15 (5 ng/mL).
To the culture medium, berbamine (BBM) at 1 μM or MilliQ water that is a solvent for the compound as a control was added, and after culturing for 14 days, the number of viable cells was counted by a trypan blue method.

`COc1cc2c3cc1Oc1c(OC)c(OC)cc4c1[C@@H](Cc1ccc(O)c(c1)Oc1ccc(cc1)C[C@@H]3N(C)CC2)N(C)CC4` [berbamine] was tested, and the “number of undifferentiated cells compared with the presence of feeder cells” value (T-iPS-T cells [1]) was “comparable results”, the “number of viable cells compared with the presence of feeder cells” value (T-iPS-T cells [1]) was “significant increase in the number of viable cells” and the “period for which the cells could be cultured” value (T-iPS-T cells [2]; restimulated on day 14, 28, 42, MilliQ water control could not be cultured after day 28) was 56 days. The “proliferation of the cells in long-term culturing” value (T-iPS-T cells [2]; vs MilliQ water) was “enhancement of the proliferation of the cells”, the “number of CD4-positive cells compared with MilliQ water” value [3] was “significant enhancement of cell proliferation” and the “number of CD8-positive cells compared with MilliQ water” value [3] was “significant enhancement of cell proliferation”. For the same compound, the “number of viable cells compared with MilliQ water” value (stem cell memory T cells) was “significant enhancement of cell proliferation” and the “number of NK cells compared with MilliQ water” value (NK cells) was “increase in the number of NK cells”.
